Reference: patent publication US20130259929A1, “USE OF A PHOSPHOPEPTIDE ABLE TO BLOCK HER3/P85 INTERACTION FOR THE TREATMENT OF HER2 HYPER-EXPRESSING TUMOURS” (priority 2010, published 2013)
Non-standard residues stand in square brackets, D forms with d. No end group written: not given here. pY = N[C@@H](Cc1ccc(OP(=O)(O)O)cc1)C(=O)O

How the values were obtained:
[1] = target: T1, HER3 binding to GST-N-SH2p85 fusion protein (Homo sapiens, UniProt P27986); test: GST pull-down; conditions: lysates of BT474, MCF7 and MDA-MB-453 cells, in vitro (FIG. 2A, FIG. 3)
T1 construct: containing SH2 domains in N-terminal portion of p85 sub-unit
T1 sequence (P27986 333-428 limits assumed): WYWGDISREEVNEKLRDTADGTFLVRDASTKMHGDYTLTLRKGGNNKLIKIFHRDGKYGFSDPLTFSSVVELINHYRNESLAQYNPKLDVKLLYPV
Experimental: GST pull-down. MCF-7, BT474 and MDA-MB-453 cell lines have been washed 2 times with cold PBS and extracted with lysis buffer [(50 mM Tris HCl (pH 7.4), 250 mM NaCl, 0,1% Triton X-100, 5 mM EDTA, 50 mM NaF, 1 mM PMSF, 5 mM Na3VO4 and 50 mmol/L of protease inhibitors (Roche, Milano, IT)]. After 20 minute ice-cold incubation, the lysates have been clarified by centrifugation at 14000 rpm for 20 minutes. The cellular extracts (1 mg sample) have been incubated for 4 hours at 4° C. in the presence of GST bound gluthatione-agarose beads or GST-p85 fusion protein (kindly supplied by doctor S. Giordano), in the presence or absence of 1257 phosphopeptide or scr peptide used as control. Then the interaction complexes have been washed six times with lysis buffer and subsequently beads eluted using Laemli Buffer 2× [(140 mM SDS, 432 mM Glycerol, 1.6 mM Bromophenol blue, 120 mM Tris HCl (pH 6.8), 8% β-mercaptoethanol)]. The proteins have been separated using 8% SDS-PAGE and transferred on nitrocellulose filter. The filter has been then immunodecorated with anti ErbB3 antibody.
As in FIG. 2A is apparent that 1257 phosphopeptide effectively in vitro binds p85 sub-unit thus inhibiting HER3 receptor binding.

[2] = system: BT474 cells; test: Cell death and apoptosis (Trypan Blue exclusion); type: cell-based, human; conditions: BT474 cells vs parental or scr transfected; Herceptin 1 μg/ml 40 hours where combined
Text: (§1) Cell death and Apoptosis. MCF7, BT474 and MDA-MB-453 cell lines have been plated at 5×10^5 concentration in 60 mm plates. On subsequent day the cells have been transfected with ErbB3 specific interference oligonucleotides or peptides. […] The cells have been washed two times with cold PBS and then trypsin collected. The evaluation of cellular viability has been carried out by means of Trypan Blue exclusion. The use of anti-PARP antibody in Western Blotting analysis allowed apoptosis to be evaluated. Briefly the cells have been lysed in RIPA buffer [150 mM NaCl, 1% NP-40, 0,5% sodium deoxycholate (DOC), 0.1% SDS, 50 mM TrisHCl (pH 8), 1 mM PMSF, 1 mM EGTA, 50 mM NaF, 50 mM Na3VO4 and protease inhibitors (Roche, Milano, IT)]. The samples have been boiled for 5 minutes at 95° C., resolved using SDS-PAGE, transferred on nitrocellulose and blotted using anti-PARP antibody. The tumour cell death analyzed by immunohistochemistry have been obtained using TUNEL assay.

[3] = system: MCF7 cells; test: Cell death and apoptosis (Trypan Blue exclusion); type: cell-based, human; conditions: MCF7 cells vs parental or scr transfected; Herceptin 1 μg/ml 40 hours where combined
Text: as §1

RDGGGPGGDpYAAMGACPA (RDGGGPGGD[pY]AAMGACPA; listed as Homo sapiens) [1257 phosphopeptide]
inhibition of HER3 and p85 SH2 domain binding [1]: inhibits in specific way HER3 and p85 SH2 domain binding | cell death, times higher than controls [2]: 4 times | cell death, times higher than controls [3]: 3 times
